Source: US6372943B1, “Polyenepolycarboxylic acids, derivatives thereof with respect to carboxyl groups, or salts of these” (Fujisawa Pharmaceutical Co., Ltd., priority 1998, dated 2002)
Each block holds one compound with its values, some of them ahead of it.

Legend:
[1] = Dispersing activity, organic pigment in a non-aqueous system case 1, ethyl acetate (Example 14)
Experimental: (§1) Into a test tube (16×150 mm) was scaled and collected 0.5 mL of a suspension of copper phthalocyanine blue in ethyl acetate (40 mg/10 mL) under stirring with a point mixer, and ethyl acetate (4.5 mL) was further added thereto.
(§2) To this suspension was added a solution of each of S1 and S2 anhydrides obtained in preparation example 1 in ethyl acetate (20 mg/2 mL), and ethyl acetate was further added thereto to give a total amount of 6 mL. This liquid was stirred with a point mixer for 15 seconds, treated with ultrasonic wave for 30 minutes, and then allowed to stand for 10 to 30 minutes. The resulting supernatant liquid (0.5 mL) was colle cted, admixed with ethyl acetate to give a total amount of 3 mL and then measured for absorbance at 660 wavelength. From the absorbance thus measured, the dispersibility was evaluated.

[2] = Dispersing activity, organic pigment in a non-aqueous system case 3, ethanol (Example 16); settings: supernatant 0.25 mL
Experimental: as §1, §2
The same procedure as in example 14 except for the use of ethanol instead of ethyl acetate was performed. The amount of a supernatant liquid was 0.25 mL. From the absorbance thus measured, the dispersing activity was evaluated.

[3] = Sequestering ability against calcium ion under alkaline condition (pH13) (Example 17); assay type: physicochemical
Experimental: First, a liquid for measurement was prepared in the following manner. Potassium oxalate (0.6 g) was dissolved in 0.1N sodium hydroxide (500 mL), and in the resulting solution (10 mL) was dissolved pentasodium salt of S1 compound (40) mg) or heptasodium salt of S2 compound (40 mg) to give the liquid for measurement. As a titrant was used 2.2% calcium acetate solution.
The titrant was added dropwise to this liquid for measurement under stirring until the liquid for measurement became turbid by precipitation of calcium oxalate to determine the titer used A (mL). Another liquid for measurement not containing any one of the test samples was also measured in the same manner as above to determine the titer of blank B (mL). Based on the titers A and B, the sequestering ability against calcium ion was calculated according to the following formula. For comparison, an existing chelating agent (EDTA·4Na) was treated in the same manner as above to calculate its sequestering ability against calcium ion.
Sequestering ability against calcium ion [Ca ion (mg)/test sample (1 g)]=(A−B)×(1 g/test sample amount precisely weighed)×5
wherein the numeral “5” is the amount of Ca ion (5 mg) equivalent to 1 mL of the 2.2% calcium acetate solution.

[4] = Dispersing activity, organic pigment in a non-aqueous system case 2, S0 anhydride in ethyl acetate (Example 15); settings: supernatant 0.25 mL
Experimental: as §1, §2
S0 anhydride obtained in preparation example 11 was treated in the same manner as in example 14. The resulting supernatant liquid (0.25 mL) was collected, admixed with ethyl acetate to give a total amount of 3 mL, and then measured for absorbance. From the absorbance thus measured, the dispersing activity was evaluated.

[5] = Dispersing activity, organic pigment in an aqueous system case 1, phthalocyanine green (Example 12); settings: standing three hours
Experimental: Into a test tube (16×150 mm) were placed a phthalocyanine green suspension (5 mL: phthalocyanine green 16 mg/distilled water 200 mL) and the filtrate (evaporated to dryness) obtained in culture example 1 in a predetermined amount, followed by stirring for 15 seconds with a point mixer. After the stirring, the resulting mixture liquid was allowed to stand for three hours, and then the diameter of phthalocyanine green deposited on the bottom of the test tube was measured to evaluate the dispersibility from the diameter measured. That is, a greater diameter measured is indicative of better dispersibility. For comparison, the same procedure was taken with commercially available naphthalenesulfonate or lignin sulfonate.

[6] = Detergent activity against artificially soiled cloth, Launder-o-meter (Example 19); settings: additive 0.25 g/L in basic washing liquid; 20° C., 10 minutes; ratio to washing liquid with no addition
Experimental: A detergency test was conducted using a Launder-o-meter as a detergency tester by washing 15 pieces of artificially wet-soiled cloth (size: 5×5 cm, dirt composition: oleic acid 28.3%, triolein 15.6%, cholesterol oleate 12.2%, liquid paraffin 2.5%, squalene 2.5%, cholesterol 1.6%, gelatin 7.0%, soil matter 29.8% and carbon black 0.2-0.3%) available from SENTAKU KAGAKU KYOKAI (foundation) in a washing liquid (liquid temperature: 20° C.) of the composition shown in Table 25 for 10 minutes, followed by rinsing for three minutes.
Judgment was done in the following manner. The reflectivity of each of the 15 pieces of artificially soiled cloth was measured before and after the test by means of a spectrocolorizeter, and from the mean value of the measured values the detergency was calculated according to the formula of Kubelka and Munk. The ratio of the detergency calculated of a sample to the detergency of a washing liquid with no addition was found as a detergency ratio.

Absorbance (660 nm) ([1]; amount added 2.5 mg): 0.66
Absorbance (660 nm) ([1]; amount added 5 mg): 1.27
Absorbance (660 nm) ([1]; amount added 10 mg): 1.86
Absorbance (660 nm) ([2]; amount added 0.25 mg): 0.05
Absorbance (660 nm) ([2]; amount added 0.50 mg): 0.69
Absorbance (660 nm) ([2]; amount added 1.00 mg): 0.63
Compound: CC/C=C/C1=C(CC(CC)CC2=C(CCC(=O)O)C(=O)OC2=O)C(=O)OC1=O (stereo not shown) [S1 anhydride]

Compound: O=C([O-])CN(CCN(CC(=O)[O-])CC(=O)[O-])CC(=O)[O-].[Na+].[Na+].[Na+].[Na+] [EDTA · 4Na, EDTA·4Na]
Sequestering ability against calcium ion, Ca ion [3]: 92 mg/1 g of a test sample

Absorbance (660 nm) ([4]; amount added 0.5 mg): 0.84
Absorbance (660 nm) ([4]; amount added 1.0 mg): 0.89
Compound: CC/C=C/C1=C(CCC(=O)O)C(=O)OC1=O [S0 anhydride]

Diameter of phthalocyanine green deposited ([5]; 0.17 mg): 4 mm
Diameter of phthalocyanine green deposited ([5]; 0.85 mg): 5 mm
Diameter of phthalocyanine green deposited ([5]; 1.7 mg): 6 mm
Diameter of phthalocyanine green deposited ([5]; 8.5 mg): 6 mm
Diameter of phthalocyanine green deposited ([5]; 17 mg): 6 mm
Compound: naphthalenesulfonate

Compound: O=C([O-])CC(O)(CC(=O)[O-])C(=O)[O-].[Na+].[Na+].[Na+] [Trisodium citrate]
Detergency ratio [6]: 1.38

Compound: O=P(O)(O)OP(=O)(O)OP(=O)(O)O [Sodium tripolyphosphate]
Detergency ratio [6]: 1.38
